# From PubChem BioAssay (NCI)
# “And” between values parts separate entries of the source, which are not always exact repeats. Identical values can stand only once.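 Exposure lasted 48 hours, with cells grown in 96-well plates and compounds tested at five concentrations. The concentration for 50% growth inhibition is given as GI50. TGI: concentration producing complete growth inhibition.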 Where a SMILES comes first, the peptide text is derived from it. [ ]: non-standard residue; d: D form. Phe(F5) = N[CH](Cc1c(F)c(F)c(F)c(F)c1F)C(=O)O
# How the values were obtained:
# Assay in all cases: NCI tumour cell line growth inhibition, 48 h
# M19-MEL melanoma = test system: M19-MEL melanoma
# HOP-18 NSCLC = test system: HOP-18 NSCLC
# SNB-19 CNS = test system: SNB-19 CNS
# KM12 colon = test system: KM12 colon
# SK-MEL-2 melanoma = test system: SK-MEL-2 melanoma
# ACHN renal = test system: ACHN renal
# NCI-H460 lung = test system: NCI-H460 lung
# OVCAR-8 ovarian = test system: OVCAR-8 ovarian
# PC-3 prostate = test system: PC-3 prostate
# BT-549 breast = test system: BT-549 breast
SMILES,TGI (M19-MEL melanoma),TGI (HOP-18 NSCLC),TGI (SNB-19 CNS),TGI (KM12 colon),TGI (SK-MEL-2 melanoma),TGI (ACHN renal),TGI (NCI-H460 lung),TGI (OVCAR-8 ovarian),TGI (PC-3 prostate),GI50 (KM12 colon) [µM],GI50 (SK-MEL-2 melanoma),GI50 (ACHN renal) [µM],GI50 (NCI-H460 lung),GI50 (OVCAR-8 ovarian),GI50 (M19-MEL melanoma) [µM],GI50 (HOP-18 NSCLC),GI50 (SNB-19 CNS) [µM],TGI (BT-549 breast),GI50 (PC-3 prostate) [µM],GI50 (BT-549 breast) [µM]
CCOP(=O)(OCC)C1CCCCOC1=O (stereo not given),> 100 µM,> 100 µM,> 100 µM,> 100 µM,> 100 µM,> 100 µM,> 100 µM,> 100 µM,,,,,,,,,,,,
COC(=O)C(CC(C)C)NC(=O)C(Cc1cnc[nH]1)NC(=O)CNC(=O)C(NC(=O)C(C)NC(=O)C(Cc1c[nH]c2ccccc12)NC(=O)C(CCC(=O)O)NC(=O)C(N)Cc1c(F)c(F)c(F)c(F)c1F)C(C)C (stereo not given) (H-[Phe(F5)]EWAVGHL-OMe; configuration not given here),> 100 µM,> 100 µM,> 100 µM,> 100 µM,> 100 µM,> 100 µM,> 100 µM,> 100 µM,> 12.5 µM,> 100,> 100 µM,> 100,> 100 µM,> 100 µM,,,,,,
CN1CCc2c1nc(-c1ccccc1)c1c2N(C)CC1,> 100 µM,78.6 µM,> 100 µM,> 100 µM,> 100 µM,> 100 µM,> 100 µM,> 100 µM,,,,,,,,,,,,
NCC1(N2CCOCC2)C2CCCC21CO (stereo not given),> 100 µM,> 100 µM,> 100 µM,> 100 µM,> 100 µM,> 100 µM,> 100 µM,> 100 µM,,,,,,,,,,,,
O=C(CCn1[nH]c(=O)c(Cl)c(Cl)c1=O)NOCCCc1ccccc1,> 100 µM,> 100 µM,> 100 µM,> 100 µM,> 100 µM,> 100 µM,> 100 µM,> 100 µM,,,,,,,,,,,,
CC(=O)[O][Pb]([O]C(C)=O)([c]1ccccc1)[c]1ccccc1,9.89 µM,> 100 µM,46.6 µM,> 100 µM,3.75 µM,> 100 µM,> 100 µM,> 100 µM,,12.6,1.73 µM,> 100,7.51 µM,7.15 µM,2.77,6.5 µM,23.8,,,
COc1ccccc1[N-]C(C1=C([O-])c2ccccc2C1=O)c1ccccc1.COc1ccccc1[N-]C(C1=C([O-])c2ccccc2C1=O)c1ccccc1.[Cu+2] (stereo not given),> 100 µM,95.1 µM,81.8 µM,43.1 µM,,74.7 µM,> 100 µM,> 100 µM,,5.76,,10.9,6.76 µM,7.52 µM,41.7,18.3 µM,23.8,,,
CCC[CH2][Sn]([CH2]CCC)([O]C(C)=O)[O]C(C)=O,5.12 µM,2.72 µM,2.35 µM,3.77 µM,1.95 µM,2.75 µM,7.55 µM,4.6 µM,,1.66,0.542 µM,1.44,2.6 µM,1.9 µM,,1.42 µM,1.14,,,
CC1=C2CCCC2C/C(=N/Nc2ccc([N+](=O)[O-])cc2[N+](=O)[O-])CC1 (stereo not given),> 100 µM,> 100 µM,> 100 µM,> 100 µM,> 100 µM,> 100 µM,> 100 µM,> 100 µM,,,,,,,,,,,,
CC1CC2C(=O)NC(=O)C2c2[nH]c3ccccc3c21 (stereo not given),> 100 µM,,,> 100 µM,> 100 µM,> 100 µM,> 100 µM,> 100 µM,,,,,,,,,,,,
CCc1ccc(NCc2cc(OC)c(OC)c(OC)c2)cc1,35.3 µM and > 87.8 µM,> 100 µM,> 100 µM,20.8 µM and 13.8 µM,23.9 µM and > 54 µM,66.7 µM and 77.4 µM,25.1 µM and 17 µM,43.6 µM and 48.1 µM,53 µM and 18.7 µM,,0.255 µM and 0.106 µM,,0.268 µM and 0.127 µM,0.687 µM and 1.45 µM,,3.4 µM and 27.6 µM,1.14,> 100 µM and 34.8 µM,,
COC(=O)[C@@H]1CSC(=S)N1C(=O)C[C@H]1CC=CC[C@H]1CC(=O)Sc1ccccc1,47.1 µM,61.1 µM,34.8 µM,34.1 µM,52 µM,32.1 µM,33.5 µM,50.6 µM,,,,,,,,,,,,
CCCC(O)[C@@H](O)c1ccc2c(c1O)C(=O)c1c(OC)cccc1C2=O (stereo not given in full),61.5 µM,> 100 µM,> 100 µM,> 100 µM,> 100 µM,> 100 µM,> 100 µM,> 100 µM,,,,,,,,,,,,
CC1(Sc2ccccc2)CN(Cc2ccccc2)C1=O (stereo not given),> 100 µM,> 100 µM,> 100 µM,> 100 µM,> 100 µM,> 100 µM,> 100 µM,> 100 µM,,,,,,,,,,,,
CS(=O)(=O)CC1=Nc2nnc(CCCCCCCc3nnc4n3C(=O)C(CS(C)(=O)=O)=N4)n2C1=O,> 100 µM,> 100 µM,> 100 µM,> 100 µM,,> 100 µM,> 100 µM,> 100 µM,,,,,,,,,,,,
COC(=O)c1[nH]c(=S)[nH]c(=O)c1-c1ccc(Cl)cc1,> 50 µM,,> 50 µM,> 50 µM,> 50 µM,> 50 µM,> 50 µM,> 50 µM,,,,,,,,,,,,
O=C1C/C(=C/c2ccc(/C=C3/CC(=O)N(c4cccc(Br)c4)C3=O)cc2)C(=O)N1c1cccc(Br)c1,> 100 µM,> 100 µM,> 100 µM,> 100 µM,> 100 µM,> 100 µM,> 100 µM,> 100 µM,,,,,,,,,,,,
C=C1C(=O)O[C@H]2C[C@@H](C)[C@@H]3CC(=O)OC[C@@]3(C)CC12 (stereo not given in full),> 100 µM,> 100 µM,> 100 µM,62 µM,> 100 µM,60 µM,51 µM,48.3 µM,,,,,,,,,,,,

SMILES,TGI (M19-MEL melanoma),TGI (HOP-18 NSCLC),TGI (SNB-19 CNS),TGI (KM12 colon),TGI (SK-MEL-2 melanoma),TGI (ACHN renal),TGI (NCI-H460 lung),TGI (OVCAR-8 ovarian),TGI (PC-3 prostate),GI50 (KM12 colon) [µM],GI50 (SK-MEL-2 melanoma),GI50 (ACHN renal) [µM],GI50 (NCI-H460 lung),GI50 (OVCAR-8 ovarian),GI50 (M19-MEL melanoma) [µM],GI50 (HOP-18 NSCLC),GI50 (SNB-19 CNS) [µM],TGI (BT-549 breast),GI50 (PC-3 prostate) [µM],GI50 (BT-549 breast) [µM]
Cc1ccc2c(c1)C1(C)OC(CC(N)C1O)O2 (stereo not given),> 100 µM,> 100 µM,> 100 µM,> 100 µM,> 100 µM,> 100 µM,> 100 µM,> 100 µM,,,,,,,,,,,,
COc1ccc(Cn2nc(-c3cc(OC)c(OC)c(OC)c3)c3c2CCc2cnoc2-3)cc1OC,,,> 100 µM,37.6 µM,> 100 µM,> 100 µM,> 100 µM,> 100 µM,65.3 µM,3.89,6.06 µM,6.12,3.28 µM,19.6 µM,,,7.99,> 100 µM,3.62,5.62
CC(=O)/C(=C\c1ccco1)C(=O)Nc1ccccc1,> 100 µM,> 100 µM,> 100 µM,> 100 µM,> 100 µM,> 100 µM,> 100 µM,> 100 µM,,,,,,,,,,,,
CCCN1C(=O)/C(=c2\sc3n(c2=O)C2C(NN=3)N(CC)C(=O)N2CC)c2ccccc21 (stereo not given),,,23.8 µM,13.8 µM,15.4 µM,17.1 µM,12.1 µM,12.3 µM,> 37.2 µM,0.41,0.799 µM,0.625,0.411 µM,0.688 µM,,,0.765,13.2 µM,0.453,1.66
O=C(O)CS(=O)(=O)C(c1ccccc1)c1ccccc1,,,> 100 µM,> 100 µM,> 100 µM,> 100 µM,> 100 µM,> 100 µM,> 100 µM,,,,,,,,,> 100 µM,,
CCOC(=O)Cc1c[nH]c(=S)[nH]c1=O,,,> 100 µM,> 100 µM,> 100 µM,> 100 µM,> 100 µM,> 100 µM,> 100 µM,> 100,> 100 µM,> 100,> 100 µM,> 100 µM,,,> 100,> 100 µM,> 100,> 100
C=C(C)[C@@H]1CC=C(CO)CC1,793 µM,,> 10 µM and 1010 µM,> 10 µM and 1050 µM,> 10 µM and 817 µM,> 10 µM and 657 µM,> 10 µM and 1260 µM,> 10 µM and 857 µM,> 10 µM,> 10,> 10 µM,> 10,> 10 µM,> 10 µM,,,> 10,> 10 µM,,
CCN(CC)c1ccc(/C=C/c2cc(C)c3ccccc3n2)cc1,,,> 100 µM,13.2 µM,6.78 µM,> 100 µM,11.7 µM,55.8 µM,> 100 µM,2.31,2.61 µM,6.12,3 µM,4.64 µM,,,5.92,62.9 µM,4.84,10.3
C=C1C(=O)O[C@@H]2C1CC(=O)C(C)CC/C=C(\C)CCC[C@H](C)[C@H]2OC(C)=O (stereo not given in full),,,> 100 µM,29.1 µM,45.5 µM,24.1 µM,43.6 µM,41.1 µM,30.6 µM,12.8,17.6 µM,11.4,21.2 µM,17.9 µM,,,25.5,30.2 µM,13.7,13
COc1cc(Cn2cc3c(c2)-c2oncc2CC3)cc(OC)c1OC,,,> 100 µM,,79.3 µM,> 100 µM,1.5 µM,> 100 µM,> 100 µM,0.0312,7.2 µM,0.134,0.034 µM,0.0548 µM,,,0.0437,> 100 µM,0.0526,0.111
C=C1C(=O)OC2CC3(C)C=CC(=O)C(=C)C3CC12 (stereo not given),3.51 µM,8.77 µM,21.3 µM,5.57 µM,3.13 µM,3.35 µM,7.12 µM,4.92 µM,,,,,,,,,,,,
CC1=CC(=O)c2c(O)cccc2C1=O,,,25 µM,19.5 µM,3.72 µM,3.01 µM,> 26.1 µM,3.2 µM,4.75 µM,,,,,,,,,3.15 µM,,
COC12C=CC(CC1)c1c(O)ccc(O)c12 (stereo not given),> 55.4 µM,> 100 µM,> 100 µM,> 100 µM,> 76.3 µM,> 61.4 µM,> 100 µM,> 70.1 µM,,,,,,,,,,,,
O=C(O)[C@@H]1C2CC([C@@H]1C(=O)O)[C@H](N1C(=O)CCC1=O)[C@@H]2Br (stereo not given in full),,,> 100 µM,> 100 µM,> 100 µM,> 100 µM,> 100 µM,> 100 µM,> 100 µM,,,,,,,,,> 100 µM,,
CN(C)c1ccc2c(NCCCCCCNc3ccnc4cc(N(C)C)ccc34)ccnc2c1,95.3 µM,,16.4 µM,> 100 µM,82.5 µM,33.6 µM,57 µM,20.5 µM,,,,,,,,,,,,
CC[C@](C)(O)C(=O)O[C@H]1C(=O)O[C@@H]2C[C@H]3C(C)=CC(=O)[C@@H](O)[C@]3(C)[C@H]3[C@@]4(O)OC[C@]32[C@@H]1[C@@H](C)[C@H]4O,0.0957 µM and 0.069 µM,0.977 µM and 3.23 µM,0.674 µM and 0.223 µM,3.62 µM and 0.404 µM,0.644 µM and 0.217 µM,1.69 µM,1.12 µM and 0.327 µM,1.74 µM and 0.541 µM,44.5 µM,0.233,,,0.184 µM,0.164 µM,0.0233,0.162 µM and 0.359 µM,,6.76 µM,,
CC(C)(C(=O)NN)c1ccccc1,,,> 100 µM,> 100 µM,> 100 µM,> 100 µM,> 100 µM,> 100 µM,> 100 µM,,,,,,,,,> 100 µM,,
